Measurements taken from patent US8394799B2, “Compounds that inhibit HIF-1 activity, the method for preparation thereof and the pharmaceutical composition containing them as an effective component” (Korea Research Institute of Bioscience and Biotechnology, priority 2006, dated 2013).

Columns and labels:
HIF-1 [1] = test: Assay of IC50, Hep3B cells (HRE-luciferase transfected); assay type: cell-based; conditions: Homo sapiens
Description: (§1) Six tandem repeats of HRE (hypoxia Responsive Element 5′-ACGTG-3′), which is present in a human VEGF gene, was inserted into the multi-cloning region of a pGL3-basic vector (Promega) containing a luciferase gene as a reporter gene to produce a recombinant pGL3-HRE-luciferase vector which was then used to assay the compounds prepared in the above Examples for inhibition activity against HIF-mediated transcriptional activity.

HIF-1 [2] = test: Assay of IC50, AGS cells (HRE-luciferase transfected); assay type: cell-based; conditions: Homo sapiens
Description: as §1

HIF-1 [3] = test: HRE reporter assay, HIF activity % remaining, AGS cells; assay type: cell-based, human; conditions: summary in words of the data of Table 1 and Table 2; cell line not stated
Description: as §1
The hepatocellular carcinoma cell line HepG2 or Hep3B, both available from ATCC (American Type Culture Collection), and the gastric carcinoma cell line AGS, available from ATCC, were grown at 70% confluency in culture dishes and co-transfected with an internal control vector (pRL-CMV, Promega) and the recombinant pGL3-HRE-luciferase vector using Lipofectamine Plus Reagent (Invitrogen). HepG2 and AGS cells were treated with the compound of Chemical Formula 1A while Hep3B and AGS cells were treated with the compound of Chemical Formula 1B. The compound of Chemical Formula 1A was used in a concentration of 10 μm for HepG2 or AGS cells. The compound of Chemical Formula 1B was used in a concentration of 30 μM for Hep3B and in a concentration of 10 μM for AGS cells. […] The compounds prepared in Examples above were assayed for inhibition activity against HIF-1 by measuring the activity of the luciferase, induced in hypoxia, using a Dual-luciferase reporter assay system (Promoga). In this regard, the luciferase activity was measured for 10 sec using a Microlumat Plus luminometer (EG&G Berthold). In the meanwhile, the renilla luciferase activity from the control vector PRL-CMV (Promega) was measured to normalize the data obtained.
On the basis of the renilla luciferase activity, the HIF activity % remaining after treatment with the compounds was corrected.

HIF-1 [4] = test: Assay of IC50, SK-Hep-1 cells (same manner); assay type: cell-based; conditions: Homo sapiens, SK-HEP1; SK-Hep-1 cell line, compounds 0.01 to 100 μM for 16 hrs
Description: as §1

[5] = test system: metastatic breast carcinoma cell line MDA-MB-435; test: In vivo anticancer activity in nude mice implanted with MDA-MB-435; conditions: for inhibition of the growth of the cancer cells compared to the control: once a day, MDA-MB-435 in nude mice
Description: Female nude mice 5-6 weeks old (Crj:BALB/c nu/nu, Charles River) were bred in germ-free breeding rooms maintained at constant temperature and humidity. The nude mice were anesthetized before incision of the chest skin. The metastatic breast carcinoma cell line MDA-MB-435, obtained from DR D. R. Welch, Univ. Alabama, was implanted at a count of 10^6 cells/mouse into the mammary gland fat pad, and the incisions were then closed with surgical clips. The nude mice were divided into test groups and a control group, each consisting of 6 mice. […] For the control group, Solution A alone was used at a dose of 100 μl once a day. Thereafter, tumor volumes and body weights were measured once a week. Tumor volumes were calculated according to the following Mathematic Formula 1. Tumor Volume (mm^3)=(Length of Long Axis,mm)×(Length of Short Axis,mm)^2×0.5 <Mathematic Formula 1>

SMILES	IC50 (HIF-1 [1]) [µM]	IC50 (HIF-1 [2]) [µM]	IC50 (HIF-1 [4]) [µM]	also measured
COC(=O)c1cccc(NC(=O)COc2ccc(C34CC5CC(CC(C5)C3)C4)cc2)c1 [Example 2, 3-[2-(4-Adaman-1-yl-phenoxy)-acetylamino]-benzoic acid methyl ester]	9.9	7.4	–	–
NC(=O)c1cccc(NC(=O)COc2ccc(C34CC5CC(CC(C5)C3)C4)cc2)c1 [Example 23, 3-[2-(4-Adamantan-1-yl-phenoxy)acetyl-amino]-benzamide]	4.3	1	–	inhibition activity against the transcription mediated by HIF-1, induced in hypoxia (HIF-1 [3]): excellent inhibition activity
CC(C)(C)c1ccc(OCC(=O)Nc2cccc(C(N)=O)c2)cc1 [Example 30, 3-[2-(4-tert-butyl-phenoxy)-acetyl-amino]-benzamide]	> 30	> 30	–	–
Cc1ccc(OCC(=O)Nc2cccc(C(N)=O)c2)cc1 [Example 31, 3-(2-p-tolyloxy-acetyl-amino)-benzamide]	> 30	> 30	–	–
NC(=O)c1cccc(NC(=O)COc2ccc([N+](=O)[O-])cc2)c1 [Example 32, 3-[2-(4-nitro-phenoxy)-acetyl-amino)benzamide]	> 30	> 30	–	–
O=C(COc1ccc(C23CC4CC(CC(C4)C2)C3)cc1)Nc1cc(C(=O)O)ccc1O [Example 48, 3-[2-(4-Adamantan-1-yl-phenoxy)-acetylamino]-4-hydroxy-benzoic acid]	0.4	0.35	–	inhibition activity against the transcription mediated by HIF-1, induced in hypoxia (HIF-1 [3]): excellent inhibition activity
O=C(COc1ccc(F)cc1)Nc1cccc(C(=O)O)c1 [Example 51, 3-[2-(4-fluoro-phenoxy)acetylamino]-benzoic acid]	> 30	> 30	–	–
O=C(COc1ccc(Cl)cc1)Nc1cccc(C(=O)O)c1 [Example 52, 3-[2-(4-chloro-phenoxy)-acetylamino]-benzoic acid]	> 30	10	–	–
O=C(COc1ccc(Br)cc1)Nc1cccc(C(=O)O)c1 [Example 57, 3-[2-(4-bromo-phenoxy)-acetylamino]-benzoic acid]	> 30	1.6	–	–
O=C(COc1ccc(I)cc1)Nc1cccc(C(=O)O)c1 [Example 58, 3-[2-(4-iodo-phenoxy)-acetylamino]-benzoic acid]	7.2	3.5	–	–
CC(=O)c1ccc(OCC(=O)Nc2cccc(C(=O)O)c2)cc1 [Example 60, 3-[2-(4-acetyl-phenoxy)-acetylamino]-benzoic acid]	> 30	> 30	–	–
NC(=O)c1ccc(O)c(NC(=O)COc2ccc(C34CC5CC(CC(C5)C3)C4)cc2)c1 [Example 65, 3-[2-(4-adamantan-1-yl-phenoxy)-acetylamino]-4-hydroxy-benzamide]	> 30	1.5	–	–
CN(C)C(=O)c1ccc(O)c(NC(=O)COc2ccc(C34CC5CC(CC(C5)C3)C4)cc2)c1 [Example 66, 3-[2-(4-adamantan-1-yl-phenoxy)-acetylamino]-4-hydroxy-N,N-dimethyl-benzamide]	> 30	> 30	–	–
O=C(COc1ccc(C23CC4CC(CC(C4)C2)C3)cc1)Nc1cc(C(=O)NCc2ccco2)ccc1O [Example 67, 3-[2-(4-adamantan-1-yl-phenoxy)-acetylamino]-N-furan-2-ylmethyl-4-hydroxy-benzamide]	12.6	5.9	–	–
CN(C)CCNC(=O)c1ccc(O)c(NC(=O)COc2ccc(C34CC5CC(CC(C5)C3)C4)cc2)c1 [Example 68, 3-[2-(4-adamantan-1-yl-phenoxy)-acetylamino]-N-(2-dimethylamino-ethyl)-4-hydroxy-benzamide]	51.7	3	–	–
O=C(COc1ccc(C23CC4CC(CC(C4)C2)C3)cc1)Nc1cc(C(=O)NCCCN2CCOCC2)ccc1O [Example 69]	> 30	> 30	–	–
O=C(COc1ccc(C23CC4CC(CC(C4)C2)C3)cc1)Nc1cccc(C(=O)Nc2ccc(Cl)cc2)c1 [Example 70, 3-[2-(4-adamantan-1-ylphenoxy)-acetylamino]-N-(4-chloro-phenyl)-benzamide]	> 30	9.5	–	–

SMILES	IC50 (HIF-1 [1]) [µM]	IC50 (HIF-1 [2]) [µM]	IC50 (HIF-1 [4]) [µM]	also measured
O=C(COc1ccc(C23CC4CC(CC(C4)C2)C3)cc1)Nc1cccc(C(=O)Nc2ccc3ccccc3c2)c1 [Example 72, 3-[2-(4-adamantan-1-yl-phenoxy)-acetylamino]-N-naphtalene-2-yl-benzamide]	> 30	> 30	–	–
O=C(COc1ccc(C23CC4CC(CC(C4)C2)C3)cc1)Nc1cccc(C(=O)NCc2ccco2)c1 [Example 73]	14.1	2	–	–
O=C(COc1ccc(C23CC4CC(CC(C4)C2)C3)cc1)Nc1cccc(C(=O)NCCc2ccncc2)c1 [Example 74]	8.2	3.1	–	–
O=C(COc1ccc(Cl)cc1Cl)Nc1cccc(C(=O)NCc2ccco2)c1 [Example 77, 3-[2-(2,4-dichloro-phenoxy)-acetylamino]-N-furan-2-ylmethyl-benzamide]	> 30	35	–	–
O=C(COc1ccc(Cl)cc1Cl)Nc1cc(C(=O)NCc2ccco2)ccc1O [Example 78, 3-[2-(2,4-dichloro-phenoxy)-acetylamino]-N-fan-2-ylmethyl-4-hydroxy-benzamide]	23.2	> 30	–	–
COC(=O)c1ccnc(NC(=O)COc2ccc(C34CC5CC(CC(C5)C3)C4)cc2)c1 [Example 86, 2-[2-(4-adamantan-1-yl-phenoxy)acetylamino]-isonicotinic acid methyl ester]	1.2	2	1.03	–
COC(=O)c1cncc(NC(=O)COc2ccc(C34CC5CC(CC(C5)C3)C4)cc2)c1 [Example 87, 5-[2-(4-adamantan-1-yl-phenoxy)acetylamino]-nicotinic acid methyl ester]	5.9	5	> 30	–
O=C(COc1ccc(Cl)cc1Cl)Nc1cc(C(=O)O)ccn1 [Example 95, 2-[2-(2,4-dichloro-phenoxy)-acetylamino]-isonicotinic acid]	–	–	–	inhibition of the growth of the cancer cells compared to the control ([5]; 20 mg/kg): 4.3%; deaths in six mice of each group ([5]; 50 mg/kg): No dead were observed; inhibition of the growth of the cancer cells compared to the control ([5]; 50 mg/kg): 36.5%
O=C(COc1ccc(C23CC4CC(CC(C4)C2)C3)cc1)Nc1cc(C(=O)O)ccn1 [Example 98, 2-[2-(4-adamantan-1-yl-phenoxy)acetylamino]-isonicotinic acid]	1.03	–	2	–
O=C(COc1ccc(C23CC4CC(CC(C4)C2)C3)cc1)Nc1cncc(C(=O)NCCc2ccncc2)c1 [Example 102, 5-[2-(4-adamantan-1-yl-phenoxy)acetylamino]-N-(2-pyridine-4-yl-ethyl)nicotinamide]	–	–	> 30	–
O=C(COc1ccc(C23CC4CC(CC(C4)C2)C3)cc1)Nc1cncc(C(=O)NCCCn2ccnc2)c1 [Example 103, 5-[2-(4-adamantan-1-yl-phenoxy)-acetylamino]-N-(3-imidazole-1-yl-propyl)nicotinamide]	–	–	1.9	–
O=C(COc1ccc(C23CC4CC(CC(C4)C2)C3)cc1)Nc1cc(C(=O)Nc2ccc(Cl)cc2)ccn1 [Example 104, 2-[2-(4-adamantan-1-yl-phenoxy)-acetylamino]-N-(4-chloro-phenyl)-isonicotinamide]	–	–	2.5	–
O=C(COc1ccc(C23CC4CC(CC(C4)C2)C3)cc1)Nc1cc(C(=O)NCc2ccco2)ccn1 [Example 105, 2-[2-(4-adamantan-1-yl-phenoxy)-acetylamino]-N-furan-2-ylmethyl-isonicotinamide]	–	–	> 30	–
O=C(COc1ccc(C23CC4CC(CC(C4)C2)C3)cc1)Nc1cc(C(=O)NCCc2ccncc2)ccn1 [Example 106, 2-[2-(4-adamantan-1-yl-phenoxy)-acetylamino]-N-(2-pyridine-4-yl-ethyl)-isonicotinamide]	–	–	3.4	–
O=C(COc1ccc(C23CC4CC(CC(C4)C2)C3)cc1)Nc1cc(C(=O)NCCCn2ccnc2)ccn1 [Example 107, 2-[2-(4-adamantan-1-yl-phenoxy)-acetylamino]-N-(3-imidazole-1-yl-propyl)-isonicotinamide]	–	–	< 1	–
NC(=O)c1cncc(NC(=O)COc2ccc(C34CC5CC(CC(C5)C3)C4)cc2)c1 [Example 112, 5-[2-(4-adamantan-1-yl-phenoxy)acetylamino]-nicotinamide]	–	–	11.9	–
